In BigSolDB 2.1:

O=c1cc(-c2ccc(O)c(O)c2)oc2cc(O)cc(O)c12
solubility (mole fraction)
Details	273.2 K	283.2 K	293.2 K	303.2 K	313.2 K	323.2 K
in ethanol	0.000755	0.00117	0.00174	0.00205	0.00271	0.00318
in water	2.06e-07	2.72e-07	3.49e-07	4.68e-07	7.3e-07	9.48e-07
